Assay [1] has as its target T1, Epidermal Growth Factor Receptor (EGFR), extracellular domain (EGFR-ECD) (Homo sapiens, UniProt P00533).
T1 construct: full-length EGFR in DiscoverX PathHunter enzyme-complementation cells, EGF-stimulated
The assay can be described thus: cell-based. Set-up: DiscoverX PathHunter EGFR dimerization/activation assay, chemiluminescence. Conditions: for % inhibition @ 10 uM / % inhibition @ 50 uM: inhibitor. The protocol: The inhibition of the EGFR dimerization assay was conducted using the PathHunter kit following the producer instructions and with cetuximab as a positive control. For IC50 determination, the selected compounds were tested at different concentration (range 0.1–100 µM) and the IC50 values were calculated by the four parameters logistic (4-PL) model. Evaluation was based on means from at least four independent experiments. The discovery of orally available small molecules able to impair the EGFR activation targeting the extracellular domain could be of great interest for cancer treatment. To pursue this goal, a suitable high/medium throughput screening method is required. In this respect, a commercially available kit (PathHunter® from DiscoverX©; San Francisco, CA, USA) for the screening of compounds able to prevent EGFR activation (either dimerization or autophosphorylation) has been developed in recent years. This assay measures the chemiluminescent signal produced as a consequence of ligand-induced dimerization/activation of EGFR [16]. Our interest in kinase inhibitors and the readily availability of such kit prompted us to start a campaign for the discovery of small molecules targeting the extracellular domain of EGFR.

Assay [2] deals with Epidermal Growth Factor Receptor (EGFR) (Homo sapiens, UniProt P00533). Kind of assay: PathHunter cell-based EGFR dimerization assay, dose-response.
Chain of Epidermal Growth Factor Receptor (EGFR) (P00533 25-1210): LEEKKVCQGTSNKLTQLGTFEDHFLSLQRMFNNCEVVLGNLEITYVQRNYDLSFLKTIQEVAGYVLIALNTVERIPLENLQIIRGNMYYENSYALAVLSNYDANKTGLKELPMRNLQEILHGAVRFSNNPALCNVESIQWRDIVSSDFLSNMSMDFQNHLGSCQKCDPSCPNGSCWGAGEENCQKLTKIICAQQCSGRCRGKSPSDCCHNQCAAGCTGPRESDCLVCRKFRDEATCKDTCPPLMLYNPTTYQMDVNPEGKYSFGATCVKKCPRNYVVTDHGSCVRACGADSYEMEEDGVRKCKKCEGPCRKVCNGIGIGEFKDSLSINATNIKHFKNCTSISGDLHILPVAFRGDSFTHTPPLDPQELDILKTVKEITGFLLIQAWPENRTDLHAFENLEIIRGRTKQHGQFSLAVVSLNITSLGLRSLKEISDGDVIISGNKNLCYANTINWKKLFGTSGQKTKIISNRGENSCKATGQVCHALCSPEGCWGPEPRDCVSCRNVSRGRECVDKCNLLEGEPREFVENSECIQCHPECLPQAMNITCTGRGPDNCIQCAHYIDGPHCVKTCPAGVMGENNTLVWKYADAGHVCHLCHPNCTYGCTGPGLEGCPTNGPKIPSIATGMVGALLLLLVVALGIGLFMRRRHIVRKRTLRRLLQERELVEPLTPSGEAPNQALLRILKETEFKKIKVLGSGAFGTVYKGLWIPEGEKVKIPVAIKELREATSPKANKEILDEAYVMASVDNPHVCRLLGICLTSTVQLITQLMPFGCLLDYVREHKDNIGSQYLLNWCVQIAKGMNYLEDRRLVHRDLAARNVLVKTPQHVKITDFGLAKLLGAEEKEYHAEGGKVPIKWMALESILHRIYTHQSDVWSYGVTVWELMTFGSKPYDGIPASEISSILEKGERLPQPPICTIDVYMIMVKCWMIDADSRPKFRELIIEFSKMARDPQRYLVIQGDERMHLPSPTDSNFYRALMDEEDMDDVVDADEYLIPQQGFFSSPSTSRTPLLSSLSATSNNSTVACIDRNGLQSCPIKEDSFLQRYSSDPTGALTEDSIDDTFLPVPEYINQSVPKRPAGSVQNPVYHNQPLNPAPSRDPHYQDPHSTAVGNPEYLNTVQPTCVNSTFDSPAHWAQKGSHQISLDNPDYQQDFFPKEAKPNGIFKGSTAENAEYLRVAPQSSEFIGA
Assay [3] deals with T1, Epidermal Growth Factor Receptor (EGFR), extracellular domain (EGFR-ECD). The assay can be described thus: SPR competition: dose-dependent decrease of EGF binding to immobilized EGFR-ECD (no SPR value printed); the IC50 is from the PathHunter cell EGFR dimerization assay. It counts as cell-based.

15 compounds from publication PMC9367601 (Cancers, 2022) can be followed below.

What is called inhibition is the drop in the measured response relative to a control, in per cent. Lower therefore signals little suppression. Usually IC50 stands for the concentration that inhibits the measured activity by half. Higher therefore signals lower potency.

T1 sequence (P00533 25-1210): as above

In assay [1], `COc1ccc([N+](=O)[O-])c(C2=NC(=Cc3ccc(NC(C)=O)cc3)C(=O)O2)c1` [DSF079] showed an inhibition at 10 µM of 3 ± 1% and an inhibition at 50 µM of 41 ± 2%.
The matching figures for `CC(=O)Nc1ccc(C=C2N=C(c3ccc([N+](=O)[O-])cc3O)OC2=O)cc1` [DSF080]: 11 ± 5% and 28 ± 3%.
For the compound `O=C(O)Cc1ccc(S(=O)(=O)Nc2ccccc2)cc1` [DSF081], in assay [1], the inhibition at 10 µM is 21 ± 5% and the inhibition at 50 µM amounted to 26 ± 1%.
Regarding `Cc1cccc(C)c1NS(=O)(=O)c1ccc(CC(=O)O)cc1` [DSF082], in assay [1], the “% inhibition @ 10 uM” value was found to be 16 ± 1% and the “% inhibition @ 50 uM” value came to 19 ± 5%.
On the same counts, the results for `Cc1cccc(C)c1NS(=O)(=O)c1ccc(CC(=O)O)cc1` [DSF083] are 36 ± 4% and 49 ± 3%.
On to `O=C(O)c1ccc(NS(=O)(=O)c2ccc(Cl)cc2[N+](=O)[O-])cc1` [DSF084], for which, in assay [1], the inhibition at 10 µM came to 19 ± 2% and the inhibition at 50 µM stood at 29 ± 3%.
In assay [1], `O=C(O)c1ccc(NS(=O)(=O)c2ccc(Cl)cc2[N+](=O)[O-])cc1O` [DSF085] yielded an inhibition at 10 µM of 0% and an inhibition at 50 µM of 36 ± 5%.
For the compound `O=[N+]([O-])c1cc(Cl)ccc1S(=O)(=O)Nc1cccc(Cl)c1` [DSF086], in assay [1], the inhibition at 10 µM worked out at 0% and at 50 µM the inhibition was 19 ± 4%.
For `CCOC(=O)c1ccc(NS(=O)(=O)c2ccc(Cl)cc2[N+](=O)[O-])cc1` [DSF087], in assay [1], testing at 10 µM gave an inhibition of 2 ± 3% and the inhibition at 50 µM was determined as 36 ± 4%.
In assay [1], `COc1ccc(OC)c(NS(=O)(=O)c2ccc(Cl)cc2[N+](=O)[O-])c1` [DSF088] displayed an inhibition at 10 µM of 0% and an inhibition at 50 µM of 22 ± 3%.
As to `O=[N+]([O-])c1cc(Cl)ccc1S(=O)(=O)N1CCOCC1` [DSF089], in assay [1], at 10 µM the inhibition was 20 ± 5% and the inhibition at 50 µM was determined as 22 ± 4%.
On the same counts, the results for `O=[N+]([O-])c1cc(Cl)ccc1S(=O)(=O)N1CCCCC1` [DSF090] are 12 ± 2% and 19 ± 1%.
Take `O=C1Nc2ccc(Br)cc2C1=Nc1cccc(C(F)(F)F)c1` [DSF-097]: it took 38.8 ± 3.6 µM to reach half-maximal inhibition in assay [2] (IC50).
For the compound `O=C1Nc2cc(Cl)c(F)cc2C1=Nc1cccc(C(F)(F)F)c1` [DSF-099], the IC50 in assay [2] was determined as 27.7 ± 4.5 µM.
`O=C1Nc2ccc([N+](=O)[O-])cc2C1=Nc1cccc(C(F)(F)F)c1` [DSF-102] displayed an IC50 in assay [3] of 13.2 ± 2.1 µM.
